What all share (type): functional, cell-based
One test deals with T-24. The experiment in a line: Antiproliferative activity against human T24 cells incubated for 48 hrs by MTT assay. As to conditions: T-24, 48 h. Background: Tetrazolium assays rely on reduction of a dye to a coloured formazan, in cell work by metabolically active cells.
The test system of another test is HepG2. The experiment in a line: Antiproliferative activity against human HepG2 cells incubated for 48 hrs by MTT assay. The note with it: HepG2, 48 h.
For a further test, the system named is MGC-803. The experiment in a line: Antiproliferative activity against human MGC-803 cells incubated for 48 hrs by MTT assay. As to conditions: MGC-803, 48 h.
In a further test the test system is SK-OV-3. The test is described as follows: Antiproliferative activity against human SK-OV-3 cells incubated for 48 hrs by MTT assay. The note with it: SK-OV-3, 48 h.

Structures are written as SMILES.

The term IC50 denotes the concentration that gives 50% inhibition. Higher therefore signals lower potency. Regarding `CN(C)CCN1C(=O)c2cccc3c(N4CCN(C(=O)OC(C)(C)C)CC4)ccc(c23)C1=O`, the IC50 with T-24 turned out to be 6.91 µM; in the test on HepG2, 11.4 µM; with MGC-803, 10.9 µM; with SK-OV-3, 10.2 µM.
Taken in the same sequence, the figures for `CCCCN1C(=O)c2cccc3c(N4CCN(C(=O)c5ccccc5)CC4)ccc(c23)C1=O` were 10.4 µM, 14.3 µM, 11.2 µM and 15.4 µM.
The corresponding values for `CC(C)(C)OC(=O)N1CCN(c2ccc3c4c(cccc24)C(=O)N(Nc2nc4ccccc4s2)C3=O)CC1` are 20.3 µM, 22.4 µM, 19.5 µM and 23.5 µM.
The corresponding values for `O=C(c1ccccc1)N1CCN(c2ccc3c4c(cccc24)C(=O)N(CCc2ccc4c(c2)OCO4)C3=O)CC1` are 24.4 µM, 31.5 µM, 21.6 µM and 35.2 µM.
Regarding `O=C1c2cccc3c(N4CCN(C(=S)SCc5ccccc5)CC4)ccc(c23)C(=O)N1Nc1ccccc1`, the IC50 in the test on T-24 came to 22.4 µM; with HepG2, 28.4 µM; in the test with MGC-803, 19.4 µM; in the test on SK-OV-3, 30.8 µM.
The corresponding values for `O=C(c1ccccc1)N1CCN(c2ccc3c4c(cccc24)C(=O)N(Cc2ccccc2)C3=O)CC1` are 17.7 µM, 26.8 µM, 23.5 µM and 22.4 µM.
Taken in the same sequence, the figures for `O=C(c1ccccc1)N1CCN(c2ccc3c4c(cccc24)C(=O)N(Nc2nc4ccccc4s2)C3=O)CC1` were 24.1 µM, 22.4 µM, 27.5 µM and 19.4 µM.
Turning to `CC(C)(C)OC(=O)N1CCN(c2ccc3c4c(cccc24)C(=O)N(Cc2ccc(Cl)cc2)C3=O)CC1`, the IC50 in the test with T-24 is 21.3 µM; with HepG2, 23.2 µM; with MGC-803 it was 25.3 µM; with SK-OV-3, 22.6 µM.
Taken in the same sequence, the figures for `CC(C)(C)OC(=O)N1CCN(c2ccc3c4c(cccc24)C(=O)N(CCc2ccc4c(c2)OCO4)C3=O)CC1` were 3.69 µM, 4.31 µM, 5.78 µM and 4.16 µM.
As for `CC(C)(C)OC(=O)N1CCN(c2ccc3c4c(cccc24)C(=O)N(CCO)C3=O)CC1`, the IC50 in the test on T-24 is 7.41 µM; in the test with HepG2, 7.62 µM; with MGC-803, 8.81 µM; with SK-OV-3, 9.13 µM.
Taken in the same sequence, the figures for `CC(C)(C)OC(=O)N1CCN(c2ccc3c4c(cccc24)C(=O)N(c2nc4ccccc4[nH]2)C3=O)CC1` were greater than 50 µM, greater than 50 µM, greater than 50 µM and greater than 50 µM.
As to `CCCCN1C(=O)c2cccc3c(N4CCN(C(=O)OC(C)(C)C)CC4)ccc(c23)C1=O`, the IC50 in the test with T-24, in the test on HepG2, in the test with MGC-803 and in the test with SK-OV-3 was greater than 50 µM in each case.
Turning to `O=C(c1ccccc1)N1CCN(c2ccc3c4c(cccc24)C(=O)N(Nc2ccccc2)C3=O)CC1`, the IC50 stood at 19.3 µM in the test on T-24, 21.5 µM with HepG2, 26.4 µM in the test on MGC-803 and 23.3 µM in the test on SK-OV-3.
Taken in the same sequence, the figures for `O=C1c2cccc3c(N4CCN(C(=S)SCc5ccccc5)CC4)ccc(c23)C(=O)N1Cc1ccc(Cl)cc1` were 21.1 µM, 25.3 µM, 20.5 µM and 28.8 µM.
The corresponding values for `CCCCN1C(=O)c2cccc3c(N4CCN(C(=S)SCc5ccccc5)CC4)ccc(c23)C1=O` are 22.6 µM, 29.7 µM, 26.1 µM and 25.3 µM.
The corresponding values for `O=C1c2cccc3c(N4CCN(C(=S)SCc5ccccc5)CC4)ccc(c23)C(=O)N1Cc1ccccc1` are 31.7 µM, 40.6 µM, 38.9 µM and 30 µM.
As to `O=C(c1ccccc1)N1CCN(c2ccc3c4c(cccc24)C(=O)N(CCc2ccc(O)c(O)c2)C3=O)CC1`, the IC50 in the test with T-24 came out at 26.5 µM; with HepG2, 28.5 µM; in the test with MGC-803, 25.8 µM; in the test with SK-OV-3, 21.4 µM.
On to `CNCCN1C(=O)c2cccc3c(N4CCN(C(=O)OC(C)(C)C)CC4)ccc(c23)C1=O`, for which the IC50 came out at 3.88 µM in the test on T-24, 7.48 µM in the test with HepG2, 8.69 µM in the test with MGC-803 and 5.42 µM in the test with SK-OV-3.
`O=c1[nH]cc(F)c(=O)[nH]1` [FLUOROURACIL]: the results for the IC50 with T-24 and in the test with HepG2 were 40.1 µM and 25.5 µM, respectively.
With `O=C(c1ccccc1)N1CCN(c2ccc3c4c(cccc24)C(=O)N(Cc2ccc(Cl)cc2)C3=O)CC1`, the IC50 with T-24 was found to be 29.2 µM; in the test with HepG2, 39.6 µM; with MGC-803 it was 43.6 µM; in the test on SK-OV-3, 31 µM.
`O=C1c2cccc3c(N4CCN(C(=S)SCc5ccccc5)CC4)ccc(c23)C(=O)N1CCO`: the IC50 with T-24 was 16.4 µM; with HepG2 it was 16.8 µM; in the test with MGC-803, 18.5 µM; with SK-OV-3, 14.3 µM.
In the case of `O=C1c2cccc3c(N4CCN(C(=S)SCc5ccccc5)CC4)ccc(c23)C(=O)N1CCc1ccc(O)c(O)c1`, the IC50 is 31.2 µM with T-24, 31.1 µM in the test with HepG2, 34.7 µM in the test on MGC-803 and 35 µM with SK-OV-3.
Taken in the same sequence, the figures for `CC(C)(C)OC(=O)N1CCN(c2ccc3c4c(cccc24)C(=O)N(Nc2ccccn2)C3=O)CC1` were 12.4 µM, 15.3 µM, 16.5 µM and 17.8 µM.
The corresponding values for `O=C1c2cccc3c(N4CCN(C(=S)SCc5ccccc5)CC4)ccc(c23)C(=O)N1Nc1nc2ccccc2s1` are 20.4 µM, 23.7 µM, 18.5 µM and 24.6 µM.
As to `CNCCCN1C(=O)c2cccc3c(N4CCN(C(=O)c5ccccc5)CC4)ccc(c23)C1=O`, the IC50 in the test on T-24 came out at 6.25 µM; with HepG2, 4.41 µM; in the test on MGC-803, 8.09 µM; in the test on SK-OV-3 it was 6.06 µM.
The corresponding values for `CNCCCN1C(=O)c2cccc3c(N4CCN(C(=O)OC(C)(C)C)CC4)ccc(c23)C1=O` are 8.45 µM, 9.75 µM, 17.4 µM and 13.1 µM.
`O=C(c1ccccc1)N1CCN(c2ccc3c4c(cccc24)C(=O)N(CCO)C3=O)CC1`: the IC50 was determined as 20.4 µM in the test with T-24, 17.4 µM in the test with HepG2, 19.5 µM with MGC-803 and 16.4 µM with SK-OV-3.
Taken in the same sequence, the figures for `CC(C)(C)OC(=O)N1CCN(c2ccc3c4c(cccc24)C(=O)N(Cc2ccccc2)C3=O)CC1` were greater than 50 µM, greater than 50 µM, greater than 50 µM and greater than 50 µM.
`CC(C)(C)OC(=O)N1CCN(c2ccc3c4c(cccc24)C(=O)N(CCc2ccc(O)c(O)c2)C3=O)CC1`: the IC50 came out at 25.1 µM in the test with T-24, 30.5 µM in the test on HepG2, 32.4 µM with MGC-803 and 26.4 µM in the test with SK-OV-3.
Taken in the same sequence, the figures for `O=C1c2cccc3c(N4CCN(C(=S)SCc5ccccc5)CC4)ccc(c23)C(=O)N1Nc1ccccn1` were greater than 50 µM, greater than 50 µM, greater than 50 µM and greater than 50 µM.
As for `O=C(c1ccccc1)N1CCN(c2ccc3c4c(cccc24)C(=O)N(Nc2ccccn2)C3=O)CC1`, the IC50 in the test on T-24 was 32.4 µM; with HepG2, 38.5 µM; in the test on MGC-803, 35.3 µM; in the test on SK-OV-3, 29.5 µM.
Taken in the same sequence, the figures for `O=C1c2cccc3c(N4CCN(C(=S)SCc5ccccc5)CC4)ccc(c23)C(=O)N1CCc1ccc2c(c1)OCO2` were 14.6 µM, 11.8 µM, 12.1 µM and 10.5 µM.

The values are drawn from ChEMBL document CHEMBL5532646, “Discovery of 4-(N-dithiobenzyl piperazine)-1,8-naphthalimide as a potent multi-target antitumor agent with good efficacy, limited toxicity, and low resistance” (Eur J Med Chem, 2024).
